{"source": "a melting point compilation (Tetko et al.)"}
{"units": {"melting point": "°C"}}
{"smiles": "CC(=O)OC1CC2C3CCC(C(C)CCCC(C)C)C3(C)CCC2C2(C)CCC(=O)CC12O", "note": "(stereo not given)", "melting point": 161}
{"smiles": "Nc1nnc(-c2ccc([N+](=O)[O-])o2)s1", "melting point": 280}
{"smiles": "O=C1OC(=O)c2cc(F)ccc21", "melting point": "75 to 78"}
{"smiles": "O=[N+]([O-])c1ncccc1Br", "melting point": 104}
{"smiles": "Nc1ccc(-c2ccc(N)cc2)cc1", "melting point": 124}
{"smiles": "CCCCCC(C)(C)C", "melting point": -113}
{"smiles": "O=C(Oc1ccccc1)c1cc2ccccc2cc1O", "melting point": "128 to 133"}
{"smiles": "O=C(O)C1CCC1", "melting point": -2}
{"smiles": "NC(=O)C12CCN(CC1)CC2", "melting point": "235 to 237"}
{"smiles": "NC(=O)c1cc(Cl)nc(Cl)c1", "melting point": "202 to 206"}
{"smiles": "CCOC(=O)CCC(C)C1CCC2C3C(=O)C(Br)C4CC(OC(C)=O)CCC4(C)C3CC(OC(C)=O)C12C", "note": "(stereo not given)", "melting point": "132 to 134"}
{"smiles": "Cc1nc(-c2ccc(C(=O)Cl)cc2)cs1", "melting point": "120 to 122"}
{"smiles": "O=C(O)c1ccc(-c2nccs2)cc1", "melting point": "239 to 241"}
{"smiles": "N#CC(=C1CCCC1)c1nc2ccccc2s1", "melting point": 235}
{"smiles": "ClC1CCCC1", "melting point": -50}
{"smiles": "Nc1ccc(N=Nc2ccc([N+]([O-])=Nc3ccc(N)cc3)cc2)cc1", "melting point": 247}
{"smiles": "O=[N+]([O-])c1ccc(C=Cc2cccc(CO)n2)o1", "melting point": 170}
{"smiles": "CC(C)C(=O)OCCCc1ccccc1", "melting point": -60}
{"smiles": "COc1ccc2c(c1)CCC1C2CCC2(C)C(=O)C(Cl)CC12", "note": "(stereo not given)", "melting point": 180}
{"smiles": "O=[N+]([O-])c1ccc(S(=O)(=O)Oc2ccccc2)cc1", "melting point": "114 to 116"}
{"smiles": "Cc1ccc2c(c1C)CCC1C2CCC2CCCCC21C", "note": "(stereo not given)", "melting point": 156}
{"smiles": "CN(C)c1ccc2c(c1)Sc1cc(N(C)C)ccc1N2C(=O)c1ccccc1", "melting point": 195}
{"smiles": "Nc1c(Cl)c(F)nc(OCC(=O)O)c1Cl", "melting point": 232}
{"smiles": "Cc1cc(C)c([N+](=O)[O-])c(C)c1[N+](=O)[O-]", "melting point": 85.3}
{"smiles": "Cn1cnc([N+](=O)[O-])c1Cl", "melting point": "146 to 150"}
{"smiles": "ON=CNc1ncccn1", "melting point": "184 to 186"}
{"smiles": "Cc1ccc(C(N)=O)cc1C", "melting point": "107 to 109"}
{"smiles": "OCc1cccc(OCCN2CCOCC2)c1", "melting point": "55 to 60"}
{"smiles": "CC(=NO)c1ccco1", "melting point": "104 to 105"}
{"smiles": "CC1(C)CC(=O)c2cc(-c3ccccc3)n(-c3ccc(Cl)c(Cl)c3)c2C1", "melting point": "167 to 169"}
{"smiles": "Cc1n[nH]c(S)n1", "melting point": "275 to 277"}
{"smiles": "CCCCCCCCC(=O)OCCCC", "melting point": -38}
{"smiles": "CCOC(=O)C(C#N)=CNc1ccccc1Cl", "melting point": "165 to 167"}
{"smiles": "COc1ccc2nnc(-c3ccc(C(F)(F)F)cc3)n2n1", "melting point": 142}
{"smiles": "NC(=S)NC(N)=S", "melting point": "181 to 183"}
{"smiles": "Fc1ccc(CN2CCNCC2)cc1", "melting point": "64 to 65"}
{"smiles": "O=[N+]([O-])c1ccccc1N1CSc2nnc(-c3cccnc3)n2C1", "melting point": 159}
{"smiles": "O=C(Cl)c1ccc2c(c1)CCO2", "melting point": "49 to 51"}
{"smiles": "CCCC(C)C1(CC)C(=O)NC(=S)NC1=O", "note": "(stereo not given)", "melting point": 130}
{"smiles": "O=C(O)C(F)(F)C(F)(F)C(F)(F)C(F)(F)C(F)(F)C(F)(F)C(F)(F)C(F)(F)C(=O)O", "melting point": "154 to 160"}
{"smiles": "N#CCc1csc2ccccc12", "melting point": 64}
{"smiles": "Cc1ccnc(O)c1[N+](=O)[O-]", "melting point": "228 to 232"}
{"smiles": "O=C1c2cc3ccccc3cc2C(=O)c2cc3ccccc3cc21", "melting point": "391 to 394"}
{"smiles": "Cc1nnc(Sc2ccc(C=O)o2)n1C", "melting point": "143 to 147"}
{"smiles": "CCC(C)(C)C(C)(C)O", "melting point": -1}
{"smiles": "Fc1ccc(-c2n[nH]c(=S)n2-n2cccc2)cc1", "melting point": 234}
{"smiles": "O=C(O)c1ccnc(N2CCCCC2)c1", "melting point": "167 to 168"}
{"smiles": "CC(=O)C12CC3CC(CC(C3)C1)C2", "melting point": "53 to 55"}
{"smiles": "C=C(C)C(=O)CC", "melting point": -69.5}
{"smiles": "CCOC(=O)NC(=S)Nc1ncccc1C", "melting point": "124 to 126"}
{"smiles": "CCOC(=O)Cc1csc(N)n1", "melting point": "91 to 95"}
{"smiles": "O=CC(C=O)c1ccncn1", "melting point": "227 to 232"}
{"smiles": "O=C(c1ccccc1)c1ccc2n1CCC2C(=O)O", "note": "(stereo not given)", "melting point": 160}
{"smiles": "CS(=O)(=O)Nc1cccc(C=O)c1", "melting point": "146 to 147"}
{"smiles": "CC(=O)C1CCC2C3CC(C)C4=CC(=O)CCC4(C)C3C(O)CC12C", "note": "(stereo not given)", "melting point": 156}
{"smiles": "CC(=O)OC1CCC2(C)C(CCC3C4CC=C(C#Cc5ccccc5)C4(C)CCC32)C1", "note": "(stereo not given)", "melting point": "152 to 153"}
{"smiles": "Oc1ccc(C(c2ccccc2)(c2ccccc2)c2ccccc2)cc1", "melting point": "283 to 289"}
{"smiles": "CCc1nc2ccccc2[nH]1", "melting point": 175}
{"smiles": "C=CC1=C(C=NNc2ccc([N+](=O)[O-])cc2[N+](=O)[O-])CCCC1", "melting point": "152 to 153"}
{"smiles": "FC(F)(F)c1ccc(Cl)c(Br)c1", "melting point": "-23 to -22"}
{"smiles": "Cc1c(C(=O)O)sc2c1CCCC2", "melting point": 218}
{"smiles": "C1COCCOCCOCCN1", "melting point": "53 to 55"}
{"smiles": "CC(C)(C)OC(=O)N[C@@H](Cc1ccc(Cl)cc1)C(=O)O", "melting point": 110}
{"smiles": "Nc1nn2c(C(F)(F)F)cc(-c3cccs3)nc2c1/N=N/c1cccc([N+](=O)[O-])c1", "melting point": 245}
{"smiles": "NS(=O)(=O)c1cc2c(s1)C(O)CCS2", "note": "(stereo not given)", "melting point": 158}
